# According to patent US20080267880A1, “AUTOMATED METHOD FOR HIGH THROUGHTOUT SCREENING OF NEMATODES” (priority 2002, published 2008):
# “And” between values parts separate entries of the source, which are not always exact repeats. Identical values can stand only once.
# Legend:
# [1] = tested on: wild-type worms (C. elegans N2); format: in vivo, Caenorhabditis elegans
# Procedure: Eggs were transferred to 24-well plates (Corning Inc., NY) containing 1 ml S-medium, without cholesterol, plus 1×10^8 cells/ml E. coli OP50, and grown at 25° C. All assays were performed on 3 day old egg-laying hermaphrodites. For worms treated with the superoxide/dismutase mimetic Euk-134 (Eukarion, Mass.) a single dose was added from a 5 mM stock (in Milli-Q water) on day one. At adulthood, 100 μL of culture media was removed from each well and replaced with 100 μL of paraquat stock solution (final concentration 40 mM). The cultures were then placed back at 25° C. and scored 48 h later for touch-provoked movement using a platinum wire. Immediately following the manual score, SYTOX green dye was added to each well to a final concentration of 1 μM.
# We then examined the utility of SYTOX green dye as a score of death due to oxidative stress by incubating 3 day old gravid adult worms in the presence or absence of 40 mM paraquat for 48 hr. Death was first scored by the absence of touch provoked movement and 15 min later by the presence of SYTOX-associated fluorescence (FIG. 6A). […] Following the addition of […] SYTOX green dye and incubation for 15 min at room temperature, death was scored as the presence of fluorescence (FIG. 6A). The mean fraction alive (±SEM) as scored by SYTOX-associated fluorescence was 0.95±0.02 (n=69) in controls and 0.07±0.04 (n=157) in paraquat treated worms.
# The utility of SYTOX dye was further tested in an experiment in which worms were cultured in the presence or absence of Euk-134 prior to paraquat exposure (FIG. 6B). […] The mean fraction alive (±SEM) scored by touch-provoked movement was 0.06±0.03 (n=47, 40 mM paraquat) and 0.78±0.11 (n 51, 40 mM paraquat+0.5 mM Euk134). The mean fraction alive (±SEM) scored using SYTOX dye was 0.13±0.00 (n=45, 40 mM paraquat) and 0.92±0.01 (n=51, 40 mM paraquat+0.5 mM Euk134). In each of these experiments the percentage of animals scored as alive using the SYTOX score was always slightly higher than the manual score.
# [2] = tested on: wild type C. elegans N2; assay: Microplate thermotolerance assay (35° C. heat shock, SYTOX fluorescence score of death); format: in vivo, Caenorhabditis elegans; parameters: thermotolerance compared to untreated wild type worms: dose or concentration left out as unconfirmed; conditions: heat shock 35° C.
# Procedure: Worms (˜10,000 to 20,000) were washed off NGM plates with 10 ml S-basal into a 15 ml tube. After gravity settling for 5 minutes, 9 ml S-basal was aspirated and replaced with fresh 9 ml S-basal. Following a further 2 washes the nematodes were introduced to the sample cup on the COPAS™ BIOSORT at a concentration of 1 worm per μl. Worms were dispensed, 1 animal per well, into either 96 well or 384 well microtitre plates according to the manufacturers instructions. For thermotolerance assays 384 well low volume plates (Greiner Bio-One Inc, Longwood, Fla.) were prepared with 20 μl S-medium containing SYTOX® at a final concentration of 1 μM. […]
# The thermotolerance assay was performed in a Fluoroskan Ascent fluorometer (Thermo Labsystems, Finland). The ambient temperature of the fluorometer was set to 35° C. and Ascent software was configured to measure the fluorescence from each well every 30 minutes over a 20-24 hour period with a 20 millisecond measurement time for each well. At this setting a complete 384 well plate could be read within 30 seconds. The excitation wavelength for fluorescence was 485 nm and the emission wavelength 538 nm.
# Analysis of individual fluorescence curves was performed using the Fluoroskan Ascent software. A 100% increase in fluorescence over baseline was used a cut-off to define a death event. […]
# [3] = tested on: wild type C. elegans N2; conditions: Babar et al. (1999); cited from earlier work
# [4] = 40 mM paraquat+0.5 mM Euk134, 48 h
compound,measurement,setting,value
COc1cccc(C=NCCN=Cc2cccc(OC)c2[O-])c1[O-].[Cl-].[Mn+3] [Euk-134],"mean fraction alive (±SEM), scored by touch-provoked movement",[1]; [4],0.78±0.11
same,"mean fraction alive (±SEM), scored using SYTOX dye",[1]; [4],0.92±0.01
"O=c1cc(N2CCOCC2)oc2c(-c3ccccc3)cccc12 [LY294002, 2-(4-Morpholinyl)-8-phenyl-4H-1-benzopyran-4-one]",effect of the drug on thermotolerance,[2]; 100 nM LY294002,no significant effect
same,thermotolerance compared to untreated wild type worms,[2]; grown from eggs to 4 day adults in S-medium at 20° C.,significantly more thermotolerant
same,thermotolerance of treated wild type worms (previously shown),[3],confers thermotolerance similar to that seen in age-1(hx546)
C[n+]1ccc(-c2cc[n+](C)cc2)cc1 [paraquat],"mean fraction alive (±SEM), SYTOX-associated fluorescence score","[1]; 40 mM paraquat alone, 48 h, 3 day old gravid adults, 15 min SYTOX",0.07±0.04 and 0.13±0.00
